According to the NIST ThermoML archive (doi:10.1016/j.jct.2017.02.022):

Columns and labels:
[1] = xn = mol fraction of the nth substance listed; conditions: 101.3 kPa, Liquid; for speed of sound: Frequency=3 MHz, Sing-around technique in a fixed-path interferometer; for mass density: Vibrating tube method
[2] = refractive index (Na D-line) (dimensionless); xn = mol fraction of the nth substance listed; conditions: 101.3 kPa, Liquid, Standard Abbe refractometry

CCn1cc[n+](C)c1.COS(=O)(=O)[O-] [1-ethyl-3-methylimidazolium methylsulfate] + CCCO
Conditions	mass density, [1] [kg/m3]	refractive index, [2]	speed of sound, [1] [m/s]
298 K, x1 = 0.059	864	1.394	1247
298 K, x1 = 0.228	1003	1.419	1377
298 K, x1 = 0.375	1090	1.435	1487
298 K, x1 = 0.524	1156	1.448	1588
298 K, x1 = 0.72	1223	1.463	1681
298 K, x1 = 0.874	1264	1.473	1730
298 K, x1 = 1	1292	1.48	1762
303 K, x1 = 0.059	859	1.393	1230
303 K, x1 = 0.228	998	1.417	1362
303 K, x1 = 0.375	1085	1.433	1473
303 K, x1 = 0.524	1152	1.446	1574
303 K, x1 = 0.72	1219	1.461	1668
303 K, x1 = 0.874	1260	1.471	1717
303 K, x1 = 1	1289	1.479	1750
308 K, x1 = 0.059	855	1.391	1214
308 K, x1 = 0.228	993	1.415	1347
308 K, x1 = 0.375	1080	1.431	1458
308 K, x1 = 0.524	1148	1.444	1560
308 K, x1 = 0.72	1215	1.459	1654
308 K, x1 = 0.874	1257	1.469	1704
308 K, x1 = 1	1285	1.478	1739
313 K, x1 = 0.059	851	1.389	1197
313 K, x1 = 0.228	989	1.413	1332
313 K, x1 = 0.375	1076	1.428	1443
313 K, x1 = 0.524	1143	1.442	1546
313 K, x1 = 0.72	1211	1.457	1641
313 K, x1 = 0.874	1253	1.468	1692
313 K, x1 = 1	1282	1.476	1727
